Consider 41 molecules from patent publication US8809341B2, “2,4-pyrimidinediamine compounds and uses as anti-proliferative agents” (Rigel Pharmaceuticals, Inc., priority 2003, dated 2014).

The test system of one experiment is H1299 cells. In words: in vitro antiproliferation assay, H1299 (lung). Type of experiment: cell-based. The essentials: (§1)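 Standard in vitro antiproliferation assays on tumour cell lines, including A549 and H1299 (both lung); IC50 values determined.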
Another experiment has as its system A549 cells. In words: in vitro antiproliferation assay, A549 (lung). Type of experiment: cell-based. The essentials:
as §1

The mark [1] stands for this setting: in vitro antiproliferation, H1299 (lung) cells, Table 4, compounds with no designated stereochemistry tested as racemate.
Where [2] appears, read: in vitro antiproliferation, A549 (lung) cells, Table 4, compounds with no designated stereochemistry tested as racemate.
Where [3] appears, read: Homo sapiens, NCI-H1299, H1299 (lung) cells.
Where [4] appears, read: Homo sapiens, A549 (lung) cells.
Where [5] appears, read: H1299 (lung) cells, antiproliferation.
The mark [6] stands for this setting: A549 (lung) cells, antiproliferation.
[7] abbreviates: Homo sapiens, NCI-H1299, IC50 class against H1299 (lung) tumor cells.
Setting [8] is: Homo sapiens, IC50 class against A549 (lung) tumor cells.
Where [9] appears, read: IC50 class against H1299 (lung) tumor cells.
Where [10] appears, read: IC50 class against A549 (lung) tumor cells.
Setting [11] is: H1299 (lung) cells, in vitro antiproliferation.
Setting [12] is: A549 (lung) cells, in vitro antiproliferation.
Setting [13] is: Table 5, in vitro antiproliferation, H1299 (lung) cells.
Where [14] appears, read: Table 5, in vitro antiproliferation, A549 (lung) cells.

A value given as a limit tells only on which side of the number the result lay.

One may read the IC50 as the concentration at which inhibition is half-maximal. With `CCCCn1ncc2cc(Nc3ncc(F)c(Nc4ccc5c(c4)NC(=O)C(C)(C)O5)n3)ccc21` [compound 1084], the IC50 in the experiment on H1299 cells (H1299 (lung) cells) and with A549 cells (A549 (lung) cells) was not above 20 µM throughout.

On to `CN1C(=O)COc2ccc(Nc3nc(Nc4cccc(O)c4)ncc3F)cc21` [compound 255], for which the IC50 with H1299 cells (setting [1]) and in the experiment on A549 cells (setting [2]) was not above 20 µM each time.

For the molecule `COc1cc(Nc2nc(Nc3cc(OC)c(Cl)cc3OC)ncc2F)cc(OC)c1` [compound 1159], the IC50 with H1299 cells (setting [3]) and in the experiment on A549 cells (setting [4]) was not above 20 µM each time.

Regarding `CNC(=O)COc1cccc(Nc2ncc(F)c(N(C)c3ccc(Cl)c(OC)c3)n2)c1` [compound 910], the IC50 is more than 20 µM in the experiment with H1299 cells (setting [5]) and not above 20 µM in the experiment on A549 cells (setting [6]).

Regarding `Fc1cnc(Nc2cccc(N3CCOCC3)c2)nc1Nc1cc(C2CC2)[nH]n1` [compound 207], the IC50 in the experiment on H1299 cells (setting [7]) and in the experiment on A549 cells (setting [8]) was not above 20 µM each time.

As for `CN(c1nc(Nc2cccc(N3CCOCC3)c2)ncc1F)C1CCC1` [compound 127], the IC50 in the experiment with H1299 cells (setting [9]) and in the experiment with A549 cells (setting [10]) was not above 20 µM in each case.

As to `COc1cc(Nc2ncc(F)c(Nc3ccc4c(c3)NC(C)(C)CO4)n2)cc(OC)c1` [compound 588], the 50% inhibitory concentration (IC50) with H1299 cells (setting [9]) and in the experiment on A549 cells (setting [10]) was not above 20 µM in each case.

As for `Cc1ccc(Nc2ncc(F)c(Nc3ccc(C)cc3)n2)cc1` [compound 721], the IC50 in the experiment on H1299 cells (setting [11]) and in the experiment on A549 cells (setting [12]) was more than 20 µM in each case.

For `CCOC(=O)N1CCC(Nc2nc(Nc3ccc(N4CCN(C)CC4)c(Cl)c3)ncc2F)CC1` [compound 187], the IC50 in the experiment with H1299 cells (setting [9]) and with A549 cells (setting [10]) was not above 20 µM throughout.

Consider `CNC(=O)COc1cc(O)cc(Nc2ncc(F)c(Nc3cccc(O)c3)n2)c1` [compound 797], for which the IC50 in the experiment on H1299 cells (setting [11]) is more than 20 µM; in the experiment with A549 cells (setting [12]), not above 20 µM.

Take `Oc1c(Cl)cc(Nc2ncc(F)c(Nc3ccc(OC(F)(F)F)c(Cl)c3)n2)cc1Cl` [compound 829]: the 50% inhibitory concentration (IC50) in the experiment with H1299 cells (setting [11]) and with A549 cells (setting [12]) was not above 20 µM throughout.

For the molecule `CC(=O)N1CCN(c2cccc(Nc3ncc(F)c(Nc4ccc5c(c4)OC(F)(F)C(F)(F)O5)n3)c2)CC1` [compound 552], the IC50 in the experiment on H1299 cells (setting [13]) and in the experiment with A549 cells (setting [14]) was not above 20 µM throughout.

For `COc1cc(Nc2ncc(F)c(Nc3ccc4c(c3)NC(=O)C(C)(C)S4(=O)=O)n2)cc(OC)c1` [compound 263], the concentration for half-maximal inhibition (IC50) with H1299 cells (setting [1]) and in the experiment with A549 cells (setting [2]) was more than 20 µM throughout.

In the case of `COC(=O)c1cc(Nc2ncc(F)c(Nc3ccc(OC)c(OC)c3)n2)cc(-c2ncco2)c1` [compound 887], the IC50 with H1299 cells (setting [5]) and with A549 cells (setting [6]) was not above 20 µM in each case.

Regarding `NC(=O)c1ccc(Nc2nc(Nc3cc(Cl)c(O)c(Cl)c3)ncc2F)cc1` [compound 1027], the IC50 in the experiment on H1299 cells (setting [5]) and in the experiment with A549 cells (setting [6]) was not above 20 µM in each case.

With `Cc1cc(Nc2ncc(F)c(Nc3ccc(N4CCN(C)CC4)c(C)c3)n2)ccc1N1CCN(C)CC1` [compound 894], the IC50 in the experiment on H1299 cells (setting [5]) and with A549 cells (setting [6]) was not above 20 µM in each case.

`CNC(=O)COc1cc(Nc2ncc(F)c(Nc3cccc(O)c3)n2)cc(OCC(=O)NC)c1` [compound 798]: the concentration for half-maximal inhibition (IC50) in the experiment on H1299 cells (setting [11]) and in the experiment on A549 cells (setting [12]) was more than 20 µM in each case.

As for `COc1cc(Nc2ncc(F)c(Nc3ccc4c(c3)NC(=O)C(C)(C)S4(=O)=O)n2)cc(OC)c1OC` [compound 265], the IC50 in the experiment with H1299 cells (setting [1]) and with A549 cells (setting [2]) was not above 20 µM each time.

With `CNC(=O)COc1cc(Nc2ncc(F)c(Nc3ccc(C)c(OCC(=O)NC)c3)n2)ccc1C` [compound 759], the IC50 with H1299 cells (setting [11]) and in the experiment on A549 cells (setting [12]) was not above 20 µM throughout.

On to `COc1cc(Nc2ncc(F)c(N(C)c3cc(OC)cc(OC)c3)n2)cc(OC)c1` [compound 852], for which the IC50 in the experiment on H1299 cells (setting [11]) and in the experiment on A549 cells (setting [12]) was not above 20 µM in each case.

For `CN1CCN(c2ccc(Nc3ncc(F)c(NC(C)(C)C)n3)cc2C(F)(F)F)CC1` [compound 224], the IC50 with H1299 cells (setting [9]) and with A549 cells (setting [10]) was not above 20 µM throughout.

Turning to `COc1c(Cl)cc(Nc2ncc(F)c(Nc3ccc(Cl)c(Cl)c3)n2)cc1Cl` [compound 834], the 50% inhibitory concentration (IC50) in the experiment with H1299 cells (setting [11]) and in the experiment on A549 cells (setting [12]) was not above 20 µM throughout.

As to `CNC(=O)COc1c(C)cc(Nc2ncc(F)c(Nc3ccc4c(c3)OCO4)n2)cc1C` [compound 570], the IC50 with H1299 cells (setting [13]) and in the experiment with A549 cells (setting [14]) was not above 20 µM each time.

As to `CNC(=O)COc1cccc(Nc2ncc(F)c(N(C)c3ccc(OC)c(Cl)c3)n2)c1` [compound 906], the 50% inhibitory concentration (IC50) in the experiment on H1299 cells (setting [5]) and with A549 cells (setting [6]) was not above 20 µM throughout.

Consider `COc1cc(Nc2ncc(F)c(Nc3ccc4c(c3)OCCO4)n2)c(OC)cc1Cl` [compound 1049], for which the IC50 in the experiment on H1299 cells (setting [9]) and in the experiment with A549 cells (setting [10]) was not above 20 µM in each case.

As for `CCCn1ncc2cc(Nc3ncc(F)c(Nc4ccc(OC)c(Cl)c4)n3)ccc21` [compound 1074], the IC50 with H1299 cells (H1299 (lung) cells) and in the experiment on A549 cells (A549 (lung) cells) was not above 20 µM each time.

Take `CNC(=O)COc1cccc(Nc2ncc(F)c(Nc3ccc(N4CCOCC4)cc3)n2)c1` [compound 992]: the IC50 in the experiment on H1299 cells (setting [5]) and in the experiment on A549 cells (setting [6]) was more than 20 µM throughout.

Regarding `Fc1cc(Nc2ncc(F)c(Nc3ccc4c(c3)OCCO4)n2)cc(C(F)(F)F)c1` [compound 522], the IC50 in the experiment on H1299 cells (setting [13]) and with A549 cells (setting [14]) was more than 20 µM each time.

Consider `Fc1cnc(Nc2ccc(N3CCOCC3)cc2)nc1Nc1cc(C2CC2)[nH]n1` [compound 210], for which the IC50 with H1299 cells (setting [7]) was more than 20 µM; with A549 cells (setting [8]) it was not above 20 µM.

Take `CC(=O)N1CCN(c2ccc(Nc3ncc(F)c(Nc4cc(C(C)(C)C)[nH]n4)n3)cc2)CC1` [compound 202]: the concentration for half-maximal inhibition (IC50) in the experiment with H1299 cells (setting [7]) and in the experiment on A549 cells (setting [8]) was not above 20 µM in each case.

Turning to `CN1CCN(c2cccc(Nc3ncc(F)c(NC4CCCC4)n3)c2)CC1` [compound 137], the IC50 with H1299 cells (setting [9]) and in the experiment with A549 cells (setting [10]) was not above 20 µM in each case.

`Cc1cc(Nc2ncc(F)c(NC3CC(C)(C)N(C)C(C)(C)C3)n2)ccc1N1CCN(C)CC1` [compound 181]: the IC50 with H1299 cells (setting [9]) and in the experiment on A549 cells (setting [10]) was not above 20 µM in each case.

For the molecule `COc1cc(Nc2ncc(F)c(Nc3ccc4c(c3)OCO4)n2)cc(C(F)(F)F)c1` [compound 541], the IC50 in the experiment with H1299 cells (setting [13]) and in the experiment with A549 cells (setting [14]) was not above 20 µM in each case.

For the molecule `CCCn1ncc2ccc(Nc3ncc(F)c(Nc4ccc(F)c(OC)c4)n3)cc21` [compound 1077], the IC50 in the experiment on H1299 cells (H1299 (lung) cells) and in the experiment with A549 cells (A549 (lung) cells) was not above 20 µM in each case.

In the case of `CN1CCN(c2ccc(Nc3ncc(F)c(Nc4ccc5c(n4)NCCO5)n3)cc2)CC1` [compound 608], the IC50 in the experiment on H1299 cells (setting [9]) and in the experiment with A549 cells (setting [10]) was not above 20 µM throughout.

As for `COc1cc(Nc2nc(Nc3ccc4[nH]c(C(C)=O)cc4c3)ncc2F)cc(OC)c1` [compound 658], the IC50 in the experiment on H1299 cells (Table 7, in vitro antiproliferation, H1299 (lung) cells) was not above 20 µM; in the experiment on A549 cells (Table 7, in vitro antiproliferation, A549 (lung) cells) it was more than 20 µM.

With `COc1cc(C(N)=O)c(Nc2ncc(F)c(NC3CCCC3)n2)cc1OC(=O)c1ccccc1` [compound 1163], the IC50 with H1299 cells (setting [3]) and with A549 cells (setting [4]) was not above 20 µM in each case.

`CNC(=O)COc1cccc(Nc2ncc(F)c(N(C)c3cc(C)c(Cl)c(C)c3)n2)c1` [compound 913]: the IC50 in the experiment with H1299 cells (setting [5]) and in the experiment on A549 cells (setting [6]) was not above 20 µM in each case.

Turning to `Cc1cc(C)cc(Nc2nc(Nc3cc(CO)cc(CO)c3)ncc2F)c1` [compound 897], the concentration for half-maximal inhibition (IC50) in the experiment on H1299 cells (setting [5]) and in the experiment on A549 cells (setting [6]) was not above 20 µM each time.

As for `Cc1cc(C)cc(Nc2ncc(F)c(Nc3ccc4c(c3)NC(=O)C(C)S4(=O)=O)n2)c1` (racemic) [compound 251], the IC50 in the experiment with H1299 cells (setting [1]) and with A549 cells (setting [2]) was not above 20 µM throughout.

As to `CC(C)c1cccc(Nc2ncc(F)c(Nc3cccc(C(C)C)c3)n2)c1` [compound 968], the 50% inhibitory concentration (IC50) in the experiment with H1299 cells (setting [5]) is not above 20 µM; with A549 cells (setting [6]), more than 20 µM.
